One experiment concerns NCI HOP-92. Kind of experiment: in vitro inhibition of growth of human lung cancer cell line NCI HOP-92 (Table 1). Format: cell-based. The text has this:
(§1) Tables 1 to 4 at the end of the present description show in vitro test results obtained in various sets of experiments for the cytotoxic activity of several of the benzazole compounds concerned, including also for reference results for the compound CJM 126 and comparative results for compound DF129, when tested against a range of tumor cell lines which includes ovarian, lung and certain colon and renal cancer cells from the National Cancer Institute (USA) collection. As usual the results are expressed in terms of IS50 values (concentration or dosage required to reduce cell growth or proliferation by 50%) calculated from dose-effect curves plotted for cultures of the cells in question.
(§2) In carrying out the in vitro studies, the cytotoxicity assays may be carried out by a method corresponding substantially to the following example: […]
(§3) On day 7 the test was terminated by the addition of 100 μl saline containing 0.002% w/v propidium iodide (Sigma), 0.3% drawing ink (Staedtler "Marsmatic 745"--Trade Mark) and 0.5% Triton X-100. The plates were kept at 4° C. overnight before reading on an inverted microscope equipped with an automated scanning stage. Fluorescence intensity was measured in arbitrary units by a photomultiplier. […]

The subject of another experiment is OVCAR-5. Briefly: in vitro activity against human ovarian cell line OVCAR-5 (Table 2). The class given is cell-based.
Description: as §1, §2, §3

Another experiment relates to OVCAR-3. Kind of experiment: in vitro activity against human ovarian cell line OVCAR-3 (Table 2). Format: cell-based.
Description: as §1, §2, §3

A further experiment relates to A2780-cisR. Briefly: in vitro activity against human ovarian cell line A2780-cisR (Table 2). Format: cell-based. The settings on record: for IC50: Homo sapiens, A2780cisR, A2780-cisR (platinum-resistant); for activity against A2780-cisR compared to the parental line A2780: words, Table 2. The text has this: As usual the results are expressed in terms of IS50 values (concentration or dosage required to reduce cell growth or proliferation by 50%) calculated from dose-effect curves plotted for cultures of the cells in question.
(§4) In carrying out the in vitro studies, the cytotoxicity assays may be carried out by a method corresponding substantially to the following example:
(§5) Cells were maintained in a continuous logarithmic culture in Dublecco's medium supplemented with 10% fetal calf serum and penicillin (100 IU/ml) and streptomycin ([…]). The cells were mildly trypsinized for passage and for use in assays. On day zero, 100 μl of trypsinized tumor cells (1×10^4 /ml) were plated in the wells of 96-well flat-bottom microtiter plates. The plates were incubated for 2 days at 37° C. and 5% CO2 in air to allow the cells to adhere and resume exponential growth prior to the addition of drugs.
(§6) On day two 50 μl of the highest drug concentration was added to the wells of column 12 and from there serially diluted 3-fold to column 1 by serial transfer of 50 μl using an 8-channel micropipette. The final volume of column 1 was adjusted to 100 μl. No additions were made to the wells of rows A and B, which served as controls. The plates were further incubated for 5 days at 37° C. and 5% CO2 in air. Each compound was tested in duplicate.
The plates were kept at 4° C. overnight before reading on an inverted microscope equipped with an automated scanning stage. Fluorescence intensity was measured in arbitrary units by a photomultiplier. An HP-87 computer controlled the movement of the stage and also collected and processed the data from the multiplier.

The next experiment relates to SDBR3. Kind of experiment: in vitro inhibitory activity against human breast tumour cell line SDBR3 (Table 4). The settings on record: initial seeding density 2.5 × 10^2 cells/well. The class given is cell-based.
Description: as §1, §2, §3

The test system of the next experiment is H69/P. Kind of experiment: in vitro inhibition of growth of human lung cancer cell line H69/P (Table 1). Format: cell-based.
Description: as §1, §4, §5, §6
(§7) On day 7 the test was terminated by the addition of 100 μl saline containing 0.002% w/v propidium iodide (Sigma), 0.3% drawing ink (Staedtler "Marsmatic 745"--Trade Mark) and 0.5% Triton X-100. The plates were kept at 4° C. overnight before reading on an inverted microscope equipped with an automated scanning stage. Fluorescence intensity was measured in arbitrary units by a photomultiplier. An HP-87 computer controlled the movement of the stage and also collected and processed the data from the multiplier.
(§8) For each compound tested a dose-response curve was obtained and the IC50 value (the drug concentration at 50% inhibition of cell growth) was calculated.

The subject of a further experiment is MOR/CPR. Briefly: in vitro inhibition of growth of human lung cancer cell line MOR/CPR (Table 1). The class given is cell-based. Conditions: for IC50: Homo sapiens, MOR/CPR (cisplatin resistant line); for activity against MOR/CPR relative to MOR/P and MOR/R: words, Table 1.
Description: as §1, §4, §5, §6, §7, §8

A further experiment has as its system L23/P. Briefly: in vitro inhibition of growth of human lung cancer cell line L23/P (Table 1). Format: cell-based.
Description: as §1, §4, §5, §6, §7, §8

The next experiment relates to MCF-7B. Kind of experiment: in vitro inhibitory activity against human breast tumour cell line MCF-7B (Table 4). Format: cell-based. The settings on record: initial seeding density 2.5 × 10^2 cells/well.
Description: as §1, §4, §5
On day two 50 μl of the highest drug concentration was added to the wells of column 12 and from there serially diluted 3-fold to column 1 by serial transfer of 50 μl using an 8-channel micropipette. The final volume of column 1 was adjusted to 100 μl. No additions were made to the wells of rows A and B, which served as controls. […]
as §3

The subject of a further experiment is MT-3. Kind of experiment: in vivo antitumor test, human breast carcinoma MT-3 xenotransplanted in nude mice. The settings on record: MT-3, optimum dose 12.5 mg/Kg/inj i.p., qd 7, 14, 21. The protocol: (§9) In one typical set of experiments, four human breast carcinomas xenotransplanted into female Ncr: nu/nu (Taconic, Germantown, U.S.A.) or male Bom: NMRI-nu/nu mice (Bomholtgaard, Ry, Denmark) were used for the evaluation of antitumor activity. Mice weighing 20-25 g at the start of experiments were held under sterile conditions at 24-26° C., 50% relative humidity and 12 hours light-dark rhythm in laminar flow shelves. The animals received autoclaved food and bedding; the drinking water was filtered and acidified (pH4.0).
(§10) The following breast carcinoma cell lines were used: BO; MCF-7 (NCI, U.S.A.); MT-1 and MT-3. The tumors BO and MCF-7 are ER^+ models: the carcinomas MT-1 and MT-3 are ER^- ones. Tumors were transplanted subcutaneously (s.c.) as pieces (2×2 mm) into the left flank of 5-8 nude mice/experimental group. Drug treatment was initiated when the tumors reached a diameter of 4-5 mm. […] Tumor size was measured twice weekly with a caliper. Median tumor volume/group was related to the first treatment day and expressed as Relative Tumor Volume (RTV). For the estimation of toxicity, body weight was determined twice weekly and the mean percentage body weight change (BCC) was calculated. In one experiment blood was obtained from the retroorbital venous plexus of mice and blood cells were determined with a Coulter counter (Model T41).

A further experiment deals with MT-1. Briefly: in vivo antitumor test, human breast carcinoma MT-1 xenotransplanted in nude mice. The settings on record: MT-1, optimum dose 6.25 mg/Kg/inj i.p., qd 7, 14, 21. As for the experimental part:
as §9, §10

[1] abbreviates: marked * significant versus control.

One may read the IC50 as the concentration needed to halve the response being measured. A higher IC50 goes with weaker potency in that assay. As for `Nc1ccc(-c2nc3ccccc3s2)cc1I` [DF129, 2-(4'-amino-3'-iodophenyl)benzothiazole], the half-inhibitory concentration (IC50) is < 0.01 µM with NCI HOP-92; 0.3 µM in the experiment with OVCAR-5; 0.6 µM with OVCAR-3; 41 µM in the experiment with A2780-cisR; < 0.001 µM in the experiment with SDBR3; > 10 µM in the experiment with H69/P. Further, the IC50 in the experiment on MOR/CPR is 0.025 µM; in the experiment on L23/P, 0.1 µM. The “activity against A2780-cisR compared to the parental line A2780” value in the experiment on A2780-cisR is recorded as “increased activity”. For the same molecule, the “activity against MOR/CPR relative to MOR/P and MOR/R” value in the experiment with MOR/CPR was “more active against the MOR/CPR line than against the two other lines”.
Consider `Cc1cc(-c2nc3ccccc3s2)ccc1N` [DF203, 2-(4'-amino-3'-methylphenyl)benzothiazole], for which the 50% inhibitory concentration (IC50) in the experiment with MCF-7B was 0.01 µM; in the experiment on A2780-cisR it was 18 µM; in the experiment on H69/P, > 10 µM; with MOR/CPR it was 0.04 µM; with L23/P it was 10 µM. Also, in the experiment on A2780-cisR, the “activity against A2780-cisR compared to the parental line A2780” value is on record as “increased activity”. The evaluation result with MT-3 and in the experiment with MT-1 was “++ (T/C = 21-35%)” in each case. For the same molecule, the “RTV, relative tumor volume (T/C %)” value in the experiment on MT-3 (setting [1]) came to 22%; with MT-1 (setting [1]) it was 34%. For the same molecule, the “activity against MOR/CPR relative to MOR/P and MOR/R” value in the experiment on MOR/CPR is given as “more active against the MOR/CPR line than against the two other lines”.

(Values after US6034246A, “2-arylbenzazole compounds” (Cancer Research Campaign Technology Limited, priority 1995, dated 2000).)
